≈ marks a conversion by molar mass, not a printed value. Ends that are not written are not given here.
Columns and labels:
in vitro [1] = settings: human, WM-266 cells
in vitro [2] = settings: human, HEK293 cells

Compound | CC50 (BEAS-2B cell line) [µg/mL] | CC50 (HMEC-1 cell line) [µg/mL] | CC50 (HEK293 cell line) [µg/mL] | CC50 (WM-266 cell line) [µg/mL] | CC50 (HUVEC cell line) [µg/mL] | LC100 (BEAS-2B cell line) | LC100 (HMEC-1 cell line) | LC100 (HEK293 cell line) | LC100 (WM-266 cell line) [µg/µL] | LC100 (HUVEC cell line) | CC50 (in vitro [1]) [µg/mL] | CC50 (in vitro [2]) [µg/mL]
CCCCCCCCCCCCCC(=O)O[C@@H]1[C@@H](C)[C@@]2(O)[C@@H](C=C(CO)C[C@]3(O)C(=O)C(C)=C[C@@H]23)[C@@H]2C(C)(C)[C@]12OC(C)=O [PMA, Phorbol 12-myristate 13-acetate, reference compound] | 297 (≈ 481 µM) | 291 (≈ 472 µM) | 275 (≈ 446 µM) | 310 (≈ 503 µM) | 272 (≈ 441 µM) |  |  |  |  |  |  | 
CVNDTFAGSTFISDEVD [Peptide-A] |  |  |  |  |  | 447 | 452 | 450 | 445 | 445 |  | 
CVNDTFAGSTFISDEVDGVDEVAKKKSK [Peptide-AB] |  |  |  |  |  | 444 | 450 | 7 | 444 | 456 | 36 | 6
GVDEVAKKKSK [Peptide-B] |  |  |  |  |  |  |  |  | 445 |  |  | 
Phosphate-buffered saline [PBS] |  |  |  |  |  | 616 | 580 | 539 | 587 | 612 |  | 

Source: US11246922B1, “Vaccine RNA-peptide against SARS-CoV-2 with endogenous exosomes as carrier” (Elidan America, LLC., priority 2021, dated 2022)
